According to patent US20130302909A1, “ASSESSMENT OF IGF-1 LEVELS IN HIV-INFECTED SUBJECTS AND USES THEREOF” (THERATECHNOLOGIES INC., priority 2011, published 2013):
*: point of attachment. Hexenoyl(3E) = CC/C=C/CC(=O)*

Assays:
serum IGF-1 [1] = assay: Serum IGF-1 level and IGF-1 SDS in HIV patients treated with ThGRF, combined phase 3 studies, main phase (LIPO-010 Main/CTR-1011); assay type: in vivo, human; conditions: Week 26; for SDS >2 (%) / SDS >3 (%): HIV+ male normative ranges
Text: (§1) The IGF-1 normative ranges were derived from two phase 3 clinical studies of treatment with the GRF analog (hexenoyl trans-3)hGRF(1-44)NH2 (also referred to herein as “ThGRF” or “TH9507”). One phase 3 clinical study includes a main phase (6 months) and an extension phase (6 months) in one study (Lipo-010) and the second phase 3 clinical study includes two studies. CTR-1011 was the main phase (first 6 months) and CTR-1012 was the extension phase (last 6 months).
(§2) The IGF-1 data at baseline of all male patients from studies Lipo-010 and CTR-1011 were combined. Loge transformation was applied. […] The level of IGF-1 in the serum samples was determined using a blocking RIA assay. The IGF-1 blocking RIA assay is a competitive binding radioimmunoassay. It utilizes rabbit polyclonal antisera specific for IGF-1 as the primary antibody and radioiodinated recombinant human IGF-1 as tracer. Serum IGF-1 is first separated from binding proteins by acid ethanol extraction. The extracts (controls and unknown/test samples) and standard are incubated with primary antibody and tracer. Free IGF-1 present in the extracts competes with and displaces the tracer from primary antibody. A second antibody specific for rabbit immunoglobulin is added to precipitate the immunocomplexes, which are then separated from free reactants by centrifugation. The amount of radioactivity present in the precipitated immunocomplex is measured with a gamma counter and is inversely related to the concentration of IGF-1 present in the sample. The amount of tracer bound to the immunocomplexes formed in the calibrator samples (purified recombinant human IGF-1) is used to establish a dose response standard curve from which the IGF-1 concentration of controls and unknown samples are back calculated.
(§3) During clinical studies of the treatment of HIV subjects with ThGRF, initial analyses of IGF-I values of the HIV subjects was performed using a typical IGF-I determination, in which age- and gender-specific means and SD values were utilized for the calculation of the standard deviation scores (SDS). These values were derived from a relatively small cohort of healthy adults and were established assuming a Normal distribution (without any transformation of the measured IGF-1 values). As such, determination of the normative IGF-1 range was initially performed based on age- and gender-matched healthy (i.e., non-HIV) subjects, without any transformation of the measured raw IGF-1 values, referred to herein below as the “typical method” or “typical approach”.
(§4) The IGF-1 SDS were recalculated based on the means and standard deviations calculated from HIV patients (from all male patients in the above-noted clinical studies at baseline per age group as presented in Table III above, assuming a Normal distribution). The results are presented in Table IV for the main phase and the extension phase.
(§5) The calculations above (based on “healthy”, typical normative ranges or using normative ranges based on IGF-1 levels in HIV subjects) were all done assuming a Normal distribution of the IGF-1 levels. However, it was noted that the distribution of the IGF-1 levels at baseline for the patients in the phase 3 clinical studies is “Lognormal” rather than “Normal”. Thus, the means and standard deviations were recalculated using the natural log(loge or In) of IGF-1 and then calculated IGF-1 SDS using the lognormal scale, i.e. [(natural log IGF-1) minus (mean) divided by (standard deviation)]. The results using lognormal distributions are presented in Table V for the main phase and the extension phase. Importantly, the percent of patients at baseline and those treated with placebo is now much closer to expected and in addition, the % of ThGRF-treated patients being larger than +2 and +3 SDS using the lognormal distribution and the HIV population normative ranges are substantially lower than that seen using the uncorrected SDS calculators.

serum IGF-1 [2] = assay: Serum IGF-1 SDS in HIV patients treated with ThGRF, combined phase 3 studies, extension phase (LIPO-010 Extension/CTR-1012); assay type: in vivo, human; conditions: for SDS >2 (%) / SDS >3 (%): HIV+ male normative ranges, percent of patients
Text: as §1, §2, §3, §4, §5

[3] = 2 mg/day, Log-Normal distribution, percent of patients
[4] = 2 mg/day, Normal distribution, percent of patients
[5] = 2 mg/day, typical approach, percent of patients
[6] = Week 27, T-P group, Log-Normal distribution
[7] = Week 27, T-P group, Normal distribution
[8] = Week 27, T-T group, Log-Normal distribution
[9] = Week 27, T-T group, Normal distribution
[10] = Week 52, T-P group, Log-Normal distribution
[11] = Week 52, T-P group, Normal distribution
[12] = Week 52, T-T group, Log-Normal distribution
[13] = Week 52, T-T group, Normal distribution
[14] = Week 52, typical approach and healthy normative ranges

(hexenoyl trans-3)hGRF(1-44)NH2 ({Hexenoyl(3E)}-YADAIFTNSYRKVLGQLSARKLLQDIMSRQQGESNQERGARARL-NH2) [ThGRF]
SDS >2 (%) (serum IGF-1 [1]; [3]): 30.1% | SDS >3 (%) (serum IGF-1 [1]; [3]): 7.4% | SDS >2 (%) (serum IGF-1 [1]; [4]): 41.2% | SDS >3 (%) (serum IGF-1 [1]; [4]): 25.4% | IGF-1 SDS Mean (SD) (serum IGF-1 [1]; 2 mg/day, typical approach (healthy normative ranges, Normal distribution)): 2.4 (2.85) | SDS >+2 (%) (serum IGF-1 [1]; [5]): 47.4% | SDS >+3 (%) (serum IGF-1 [1]; [5]): 35.6% | IGF-1 level Mean (SD) (serum IGF-1 [1]; ThGRF 2 mg/day): 262 (123.6) ng/ml | SDS >2 (%) (serum IGF-1 [2]; [6]): 28.8% | SDS >3 (%) (serum IGF-1 [2]; [6]): 5.3% | SDS >2 (%) (serum IGF-1 [2]; [7]): 40.2% | SDS >3 (%) (serum IGF-1 [2]; [7]): 21.2% | SDS >2 (%) (serum IGF-1 [2]; [8]): 32.6% | SDS >3 (%) (serum IGF-1 [2]; [8]): 7.6% | SDS >2 (%) (serum IGF-1 [2]; [9]): 44.5% | SDS >3 (%) (serum IGF-1 [2]; [9]): 29.2% | SDS >2 (%) (serum IGF-1 [2]; [10]): 0.0% | SDS >3 (%) (serum IGF-1 [2]; [10]): 0.0% | SDS >2 (%) (serum IGF-1 [2]; [11]): 1.1% | SDS >3 (%) (serum IGF-1 [2]; [11]): 0.0% | SDS >2 (%) (serum IGF-1 [2]; [12]): 19.5% | SDS >3 (%) (serum IGF-1 [2]; [12]): 5.8% | SDS >2 (%) (serum IGF-1 [2]; [13]): 27.9% | SDS >3 (%) (serum IGF-1 [2]; [13]): 16.3% | ThGRF-treated patients larger than +2 SDS (serum IGF-1 [2]; [14]): 33.7% | ThGRF-treated patients larger than +3 SDS (serum IGF-1 [2]; [14]): 22.6%
